35 molecules from patent US12441719B2, “Inhibitors of SARM1” (Disarm Therapeutics, Inc., priority 2019, dated 2025) can be followed below.

The test has as its target T1, SARM1 (Homo sapiens, UniProt Q6SZW1).
T1 construct: AviTag […]; made in house; host or cells: NRK1-HEK293T cells, transiently transfected; the clarified sonicated lysate was used without purification
T1 sequence (Q6SZW1 with tags, fused parts or gaps): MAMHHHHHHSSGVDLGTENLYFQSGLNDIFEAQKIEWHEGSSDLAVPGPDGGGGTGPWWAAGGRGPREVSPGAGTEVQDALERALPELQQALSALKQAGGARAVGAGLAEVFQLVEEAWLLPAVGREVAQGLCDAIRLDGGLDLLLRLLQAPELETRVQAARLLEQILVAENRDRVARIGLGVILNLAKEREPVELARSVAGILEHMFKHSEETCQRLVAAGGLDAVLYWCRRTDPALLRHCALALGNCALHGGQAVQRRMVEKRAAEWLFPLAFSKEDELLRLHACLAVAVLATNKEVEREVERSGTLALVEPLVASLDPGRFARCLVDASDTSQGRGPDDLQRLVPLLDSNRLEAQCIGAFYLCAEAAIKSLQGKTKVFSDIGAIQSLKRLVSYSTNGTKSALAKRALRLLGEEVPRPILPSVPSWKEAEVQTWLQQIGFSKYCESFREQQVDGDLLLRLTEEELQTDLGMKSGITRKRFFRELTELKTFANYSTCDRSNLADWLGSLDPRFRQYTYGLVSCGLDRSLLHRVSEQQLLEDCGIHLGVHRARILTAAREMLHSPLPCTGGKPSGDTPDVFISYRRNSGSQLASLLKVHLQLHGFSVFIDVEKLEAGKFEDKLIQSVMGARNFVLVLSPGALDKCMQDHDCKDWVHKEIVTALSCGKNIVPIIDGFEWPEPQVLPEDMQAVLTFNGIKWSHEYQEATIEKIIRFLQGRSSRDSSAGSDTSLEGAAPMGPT
As to the kind of experiment: ARM-SAM-TIR SARM1 IC50 assay (NADase activity, NAD+ cleavage). In kind it is biochemical. From the text:
This Example describes an assay of ARM-SAM-TTR NADase activity and use of this assay to measure the efficacy of compounds of Formula I or Formula II to block SARM1 mediated NAD+ cleavage. This assay is optimized in such a way as to characterize the efficacy of the compounds in Formula I or Formula II to inhibit SARM1 activity and to calculate an IC50 value for each compound. This assay makes use of full length SARI, which encompasses the ARM, SAM and TTR domains.
Preparation of ARM-SAM-TIR Lysate (STL)
NRK1-HEK293T cells were seeded onto 150 cm^2 plates at 20×10^6 cells per plate. The next day, the cells were transfected with 15 μg ARM-SAM-TIR expression plasmid, SEQ ID NO: 1.
The cultures were supplemented with 1 mM NR at time of transfection to minimize toxicity from ARM-SAM-TIR overexpression. Forty-eight hours after transfection, cells were harvested, pelleted by centrifugation at 1,000 rpm (Sorvall ST 16R centrifuge, Thermo Fisher), and washed once with cold PBS (0.01 M phosphate buffered saline NaCl 0.138 M; KCl 0.0027 M; pH 7.4). The cells were resuspended in PBS with protease inhibitors (cOmplete™ protease inhibitor cocktail, Roche product #11873580001) and cell lysates were prepared by sonication (Branson Sonifer 450, output=3, 20 episodes of stroke). The lysates were centrifuged (12,000×g for 10 min at 4° C.) to remove cell debris and the supernatants (containing ARM-SAM-TIR protein) were stored at −80° C. for later use in the in vitro ARM-SAM-TIR NADase assay (see below). Protein concentration was determined by the Bicinchoninic (BCA) method and used to normalize lysate concentrations.
ARM-SAM-TIR IC50 Assay of Formula I or Formula II Compounds.
The enzymatic assay was performed in a 384-well polypropylene plate in Dulbecco's PBS buffer in a final assay volume of 20 μL. ARM-SAM-TIR lysate with a final concentration of 5 μg/mL was pre-incubated with the respective compound at 1% DMSO final assay concentration over 2 h at room temperature. The reaction was initiated by addition of 5 μM final assay concentration of NAD+ as substrate. After a 2 hr room temperature incubation, the reaction was terminated with 40 μL of stop solution of 7.5% trichloroactetic acid in acetonitrile. The NAD+ and ADPR concentrations were analyzed by a RapidFire High Throughput Mass Spectrometry System (Agilent Technologies, Santa Clara, CA) using an API4000 triple quadrupole mass spectrometer (AB Sciex Framingham, MA).

Where [1] appears, read: ARM-SAM-TIR lysate 5 μg/mL from NRK1-HEK293T cells, 2 h pre-incubation with compound, 5 μM NAD+, 2 hr room temperature, NAD+ and ADPR by RapidFire mass spectrometry, read-out: SARM1 IC50.

pIC50: −log10 of the molar value. Read-outs that look alike come from different tables or passages of the source. Where only a bound is given, the exact number is not on record here.

The term pIC50 denotes the negative decadic logarithm of the IC50, by convention in mol/L. Take `CO[C@@H]1CCCN(c2cc(C#N)c3cc(Cl)ccc3n2)C1` [Example 60]: under setting [1], the pIC50 was more than 5.30.

In the case of `N#Cc1cc(N2CCCC(c3ccccn3)C2)nc2ccc(Br)cc12` (centres unmarked) [Example 150], the pIC50 under setting [1] was more than 5.30.

As to `CS(=O)(=O)C1CCCN(c2cc(C#N)c3cc(Cl)ccc3n2)C1` (centres unmarked) [Example 59], the pIC50 under setting [1] was more than 5.30.

On to `N#Cc1cc(N2CCC(N)CC2)nc2ccc(Br)cc12` [Example 20], for which the negative logarithm of the IC50 (pIC50) under setting [1] was more than 5.30.

As for `C#CCCC1(CCNC2CCN(c3cc(C#N)c4cc(Cl)ccc4n3)CC2)N=N1` [Example 88], the pIC50 under setting [1] was more than 5.30.

Regarding `N#Cc1cc(N2CCC(C(N)=O)C2)nc2ccc(Cl)cc12` (centres unmarked) [Example 67], the pIC50 under setting [1] was more than 5.30.

As for `CN(C)c1cc(C#N)c2cc(F)ccc2n1` [Example 25], the pIC50 under setting [1] is 4.82 to 5.30.

Regarding `Cn1ccnc1C1CCCN(c2cc(C#N)c3cc(Br)ccc3n2)C1` (centres unmarked) [Example 151], the pIC50 under setting [1] was more than 5.30.

As to `N#Cc1cc(N2CCCC(n3cccn3)C2)nc2ccc(Br)cc12` (centres unmarked) [Example 153], under setting [1], the pIC50 was more than 5.30.

As to `Cn1cnc(C(=O)N[C@H]2CCCN(c3cc(C#N)c4cc(Br)ccc4n3)C2)c1` [Example 130], under setting [1], the pIC50 is more than 5.30.

With `N#Cc1cc(N2CCC(O)CC2)nc2ccc(Cl)cc12` [Example 75], the pIC50 under setting [1] is more than 5.30.

Consider `COCCNC(=O)CNc1cc(C#N)c2cc(Cl)ccc2n1` [Example 29], for which the pIC50 under setting [1] was 4.52 to 4.82.

With `Cn1cc(-c2cc(C#N)c3cc(Cl)ccc3n2)cn1` [Example 86], the negative-log IC50 (pIC50) under setting [1] was 4.82 to 5.30.

Turning to `Cc1nccnc1C(=O)N[C@H]1CCCN(c2cc(C#N)c3cc(Br)ccc3n2)C1` [Example 134], the pIC50 under setting [1] is more than 5.30.

Regarding `N#Cc1c(Cl)c(N2CC[C@@H](O)C2)nc2ccc(Cl)cc12` [Example 90], the pIC50 under setting [1] is more than 5.30.

As for `N#Cc1cc(N2CCC[C@H](NC(=O)c3c[nH]cn3)C2)nc2ccc(Br)cc12` [Example 136], under setting [1], the pIC50 was more than 5.30.

In turn, `N#Cc1cc(N2CC3CC(C2)N3)nc2ccc(Cl)cc12` [Example 73] had a pIC50 of more than 5.30.

With `N#Cc1cc(N2CCN(c3ncc[nH]3)CC2)nc2ccc(Cl)cc12` [Example 43], the pIC50 under setting [1] is 4.52 to 4.82.

In the case of `CN(C)C(=O)NCCNc1cc(C#N)c2cc(Cl)ccc2n1` [Example 41], the pIC50 under setting [1] was 4.52 to 4.82.

On to `N#Cc1cc(N2CCC(N)CC2)nc2ccc(Cl)cc12` [Example 3], for which, under setting [1], the pIC50 is 4.82 to 5.30.

`N#Cc1cc(N2CCCC[C@H]2CO)nc2ccc(Cl)cc12` [Example 95]: under setting [1], the pIC50 is more than 5.30.

For the molecule `N#Cc1cc(NC(CCO)C2CCOCC2)nc2ccc(Cl)cc12` (centres unmarked) [Example 33], the pIC50 under setting [1] is 4.82 to 5.30.

Turning to `CN1CCC(Nc2cc(C#N)c3cc(Cl)ccc3n2)C1=O` (centres unmarked) [Example 46], the pIC50 under setting [1] was more than 5.30.

Turning to `N#Cc1cc(N2CCCCC2)nc2cc(Cl)ccc12` [Example 26], the pIC50 under setting [1] is more than 5.30.

In the case of `N#Cc1cc(N2CCC(C(=O)NCC3CC3)CC2)nc2ccc(Br)cc12` [Example 105], under setting [1], the pIC50 was 4.82 to 5.30.

As to `CS(=O)(=O)NC1CCN(c2cc(C#N)c3cc(Br)ccc3n2)CC1` [Example 117], the negative-log IC50 (pIC50) under setting [1] is more than 5.30.

In the case of `N#Cc1cc(NC2CCCCNC2=O)nc2ccc(Cl)cc12` (centres unmarked) [Example 31], the pIC50 under setting [1] was more than 5.30.

`N#Cc1cc(N2CCSCC2)nc2ccc(Cl)cc12` [Example 92]: the pIC50 under setting [1] was more than 5.30.

With `Cn1cc(C(=O)N[C@H]2CCCN(c3cc(C#N)c4cc(Br)ccc4n3)C2)cn1` [Example 128], under setting [1], the negative logarithm of the IC50 (pIC50) is more than 5.30.

On to `CN(C)c1cc(C#N)c2cc(Cl)ccc2n1` [Example 5], for which the pIC50 under setting [1] is more than 5.30.

Regarding `CS(=O)(=O)C1CCN(c2cc(C#N)c3cc(Cl)ccc3n2)C1` (centres unmarked) [Example 47], the pIC50 under setting [1] is more than 5.30.

In the case of `N#Cc1cc(N2CCC[C@@H](N)C2)nc2ccc(Cl)cc12` [Example 85], the pIC50 under setting [1] is 4.82 to 5.30.

For `N#Cc1cc(Cl)nc2ccc(Cl)cc12` [Example 15], under setting [1], the pIC50 is less than 4.52.

Turning to `N#Cc1cc(N2CCC[C@H](NC(=O)c3cnccn3)C2)nc2ccc(Br)cc12` [Example 133], under setting [1], the pIC50 is more than 5.30.

For the molecule `N#Cc1cc(N2CCC[C@H](NC(=O)N3CCS(=O)(=O)CC3)C2)nc2ccc(Br)cc12` [Example 138], the pIC50 under setting [1] is more than 5.30.
